Laboratory results: patent US9023763B2, “Modification of trehalose-6-phosphate levels in plants” (Isis Innovation Limited, priority 2011, dated 2015)
Where two headings read alike, the source gives them in different places.

Tests used:
[1] = In vitro deprotection under UV light and sunlight, followed by mass spectrometry/TLC and P NMR; assay type: physicochemical; conditions: for deprotection time: 5 mM in phosphate buffer pH 7.4
Description: Two experimental techniques were chosen for studying the progress of deprotection experiments i.e. i) Mass spectroscopy and TLC (spot), and ii) P NMR. Progress of the reactions was monitored by looking for the disappearance of peak corresponding to protected compounds and appearance of peak corresponding to T6P. The structure of completely uncaged compound i.e. T6P was established by 1D and 2D NMR.
Both experimental techniques were very efficient and reproducible to analyse the deprotection experiments. Five millimolar solutions of Examples 1 to 4 were prepared in phosphate buffer (pH 7.4) and the resulting solution was exposed to different wavelengths of UV light and sunlight to monitor deprotection at different time intervals.
After successful synthesis of protected-G6P(1-OMe) compounds their deprotection was carried out under various wavelength and power of UV light.

[2] = test system: SnRK1; experiment: SnRK1 assay (Plant Physiol. 2009, 149, 1860-1871); assay type: biochemical
Description: The compounds synthesised in Examples 1 to 4 were tested against the known target for T6P in vitro i.e. SnRK1, using the assay described in Plant Physiol. 2009, 149, 1860-1871.
T6P deprotected by treatment of NB-T6P (Example 1) under deprotection conditions of 125 W/365 nm radiation was included in SnRK1 assays (carried out in accordance with Plant Physiol. 2009, 149, 1860-1871) to determine its inhibition effect and compared to commercially available T6P from Sigma. The results are depicted in FIG. 3.

[3] = In-planta uptake after feeding to roots of seedlings, quantified by HPLC/LCMS; assay type: in vivo, Arabidopsis thaliana; conditions: for Uptake %: proportion of compound fed taken up by the plant, 72 h; for Uptake % / uptake in μg/10 mg of seedling / concentration at 72 h: Arabidopsis seedling; for uptake in μg/10 mg of seedling / concentration at 72 h: protected T6P compounds, after 72 h (3 days), n = 3; for concentration at 72 h: read-out: uptake in μg/10 mg of seedling; for in-planta uptake (in words): after 72 h
Description: Aqueous solutions of each of Examples 1 to 4 were fed to roots of seedlings of Arabidopsis thaliana and after a certain period of time the aerial (shoot) part of seedling was harvested carefully and extracted in H2O:MeOH (1:1) under liquid nitrogen to get crude fresh plant extract. The crude fresh plant extract thus obtained was analysed by mass spec and using HPLC to quantify the amount of compound taken up.
An aqueous solution of NB-T6P (Example 1) was fed to the seedlings, at 1 mM final concentration, near to the root and uptake was monitored in freshly prepared extract after 24 h, 48 h and 72 h using both HPLC and mass technique.
The quantitative analysis of the compounds taken up into the plant was carried out using freshly prepared plant extract by LCMS and summarised data are given in Table 2.

[4] = test system: Arabidopsis thaliana; experiment: Increased starch production in treated plants; assay type: in vivo; conditions: 0.1 mM in the media
Description: Pre-stratified Arabidopsis thaliana seeds were sown in sterile culture on 0.5 mL solid medium (0.5× Murashige and Skoog with Gamborg's vitamins, 0.5% agar) in 0.5 mL tubes pierced with a small hole in the bottom. Tubes were arrayed in polystyrene racks and floated in liquid medium without added sucrose in Phytatrays. Seedlings were grown under 12 hr days under fluorescent lights giving 250 μmo/m^2/s, and 23° C. day/18° C. night temperatures. At 16-20 days after sowing the liquid medium was removed and the tubes were sealed with electrician's tape. All plants were topped up with 0.5×MS medium with no sucrose. Plants were treated with compound example 3, or water by adding example 3 to a final concentration of 0.1 mM in the media. On the third day plants were subjected to growth lights supplemented with UV light (8 W UV bulb) from a Gelman transilluminator (Model 51438) at a distance of 6 cm for 8 h. Plants were allowed to recover for a further day and the aerial parts were harvested at the end of the day, weighed and frozen in liquid nitrogen. Starch was extracted according to published methods, converted to glucose and measured as nmol glucose/gram fresh weight (Nature Protocol 2006, 1, 1342). Results are depicted in FIG. 6.

[5] = Arabidopsis thaliana, in vivo, 1 mM

deprotection time of caged G6P(1-OMe) ([1]; 8 W/254 nm) [h] | deprotection time of caged G6P(1-OMe) ([1]; 8 W/365 nm) [h] | deprotection time of caged G6P(1-OMe) ([1]; 125 W/200-400 nm) [h] | deprotection time of caged G6P(1-OMe) ([1]; 125 W/365 nm) [h] | deprotection time of caged G6P(1-OMe) ([1]; Sun light) [h] | SMILES | deprotection time ([1]; 8 W/254 nm) [min] | deprotection time ([1]; 8 W/365 nm) [min] | deprotection time ([1]; 125 W/200-400 nm) [min] | deprotection time ([1]; 125 W/365 nm) [min] | deprotection time ([1]; Sun light) [min] | Uptake % [3] [%] | in-planta uptake (in words) [3] | further results
6 | 8 | 0.75 | 1.25 | 8 | CO[C@H]1O[C@H](COP(=O)(OCc2ccccc2[N+](=O)[O-])OCc2ccccc2[N+](=O)[O-])[C@@H](O)[C@H](O)[C@H]1O [NB-G6P(1-OMe)] | – | – | – | – | – | – | – | –
– | – | – | – | – | O=P(O)(O)OC[C@H]1O[C@H](O[C@H]2O[C@H](CO)[C@@H](O)[C@H](O)[C@H]2O)[C@H](O)[C@@H](O)[C@@H]1O [Example T6P, trehalose-6-phosphate] | – | – | – | – | – | – | – | SnRK1 inhibition ([2]; T6P obtained from deprotection of Example 1 (125 W/365 nm), 0.32 mM, FIG. 3): inhibits SnRK1 in the same way as commercially available T6P; SnRK1 inhibition ([2]; in vitro, in duplicate, FIG. 1): shows typical inhibition
– | – | – | – | – | O=[N+]([O-])c1ccccc1COP(=O)(OCc1ccccc1[N+](=O)[O-])OCC1O[C@H](O[C@H]2OC(CO)[C@@H](O)C(O)C2O)C(O)C(O)[C@@H]1O (some centres unmarked) [Example 1, NB-T6P] | 240 | 360 | 15 | 30 | 360 | 14 | – | concentration at 24 h ([3]; Arabidopsis thaliana, in vivo, 1 mM final concentration fed near the root, 24 h): 263000 ng/g; concentration at 48 h ([3]; Arabidopsis thaliana, in vivo, 1 mM final concentration fed near the root, 48 h): 605000 ng/g; uptake in μg/10 mg of seedling [3]: 26.39 μg/10 mg of seedling
– | – | – | – | – | COc1cc(COP(=O)(O)OCC2O[C@H](O[C@H]3OC(CO)[C@@H](O)C(O)C3O)C(O)C(O)[C@@H]2O)c([N+](=O)[O-])cc1OC (some centres unmarked) [Example 4, Mono-DMNB-T6P] | 600 | 360 | 45 | 45 | 360 | 1 | taken up by the plant | concentration at 72 h [3, 5]: 360000 ng/g; concentration at 72 h ([3]; Arabidopsis thaliana, in vivo): 360000 ng/g
– | – | – | – | – | COc1cc(COP(=O)(OCc2cc(OC)c(OC)cc2[N+](=O)[O-])OCC2O[C@H](O[C@H]3OC(CO)[C@@H](O)C(O)C3O)C(O)C(O)[C@@H]2O)c([N+](=O)[O-])cc1OC (some centres unmarked) [Example 2, DMNB-T6P] | 600 | 600 | 60 | 60 | 480 | 1 | taken up by the plant | concentration at 72 h [3, 5]: 318000 ng/g; concentration at 72 h ([3]; Arabidopsis thaliana, in vivo): 318000 ng/g
– | – | – | – | – | CC(OP(=O)(OCC1O[C@H](O[C@H]2OC(CO)[C@@H](O)C(O)C2O)C(O)C(O)[C@@H]1O)OC(C)c1ccccc1[N+](=O)[O-])c1ccccc1[N+](=O)[O-] (some centres unmarked) [Example 3, NPE-T6P] | 90 | 90 | 10 | 20 | 90 | 18 | taken up by the plant | increase in amount of starch produced relative to concentration of T6P released in-planta ([4]; 8 W UV for 8 h): tenfold higher; starch levels compared to plants treated with water only ([4]; growth lights plus 8 W UV bulb for 8 h on third day, harvested a day later, FIG. 6): significantly higher starch levels; uptake in μg/10 mg of seedling [3]: 66.0 μg/10 mg of seedling
10 | 10 | 1.25 | 1.25 | 8 | COc1cc(COP(=O)(O)OC[C@H]2O[C@H](OC)[C@H](O)[C@@H](O)[C@@H]2O)c([N+](=O)[O-])cc1OC [Mono-DMNB-G6P(1-OMe)] | – | – | – | – | – | – | – | –
2 | 2 | 0.75 | 1.25 | 10 | COC1OC(COP(=O)(OC(C)c2ccccc2[N+](=O)[O-])OC(C)c2ccccc2[N+](=O)[O-])C(O)C(O)C1O (mixture of isomers) [NPE-G6P(1-OMe)] | – | – | – | – | – | – | – | –
10 | 10 | 2 | 2 | 10 | COc1cc(COP(=O)(OCc2cc(OC)c(OC)cc2[N+](=O)[O-])OC[C@H]2O[C@H](OC)[C@H](O)[C@@H](O)[C@@H]2O)c([N+](=O)[O-])cc1OC [DMNB-G6P(1-OMe)] | – | – | – | – | – | – | – | –
